Laboratory results reported in patent US11058705B2, “Drug formulations” (Astex Pharmaceuticals, Inc., priority 2011, dated 2021).
In brackets after ≈: the same amount, converted by molar mass. Where two headings read alike, the source gives them in different places.

Assays:
[1] = system: LINE-1 DNA methylation; experiment: LINE-1 DNA methylation in blood samples, repeat dose study; type: in vivo, cynomolgus monkeys; conditions: until day 22, p<0.05 versus level prior to initial dosing
Protocol: In a repeat dose study, monkeys were dosed 3× weekly subcutaneously (3 mg/kg). […] (FIGS. 1 and 2.) Pharmacodynamic properties (not shown) were monitored and were acceptable. Blood samples were drawn periodically to assay LINE-1 DNA methylation.

[2] = Solubility in formulation solvent and in water; type: physicochemical; conditions: organic solvent or mixture; substantially anhydrous solvent of the formulations of the invention
Source text: The good chemical stability taken together with the excellent solubility identified the glycol/glycerin/ethanol (65:25:10) system as a formulation for use in animal experiments.

[3] = Stability in solvent formulations by HPLC; type: physicochemical; conditions: for % decomposition per hour / Percent compound detected: sodium salt
Protocol: The stability of a compound of the invention in various formulations under various storage conditions was investigated. Stability was determined by HPLC at the designated time intervals.

[4] = system: DNA methylation; experiment: Cell-based GFP assay for reactivation of silenced GFP transgene (demethylating activity); conditions: for GFP Expression Level: three days, decitabine 1 μM or test compound 30-50 μM, fraction of viable cells expressing GFP; for EC50: read-out: GFP50
Protocol: The demethylating activity of compounds of the invention was tested in a cell-based green fluorescent protein (GFP) assay. In the assay, a decrease in methylation resulting from exposure to a methylation inhibitor led to GFP expression, and was readily scored.
The CMV-EE210 cell line containing the epigenetically silenced GFP transgene was used to assay for reactivation of GFP expression by flow cytometry. CMV-EE210 was made by transfecting NIH 3T3 cells with the pTR-UF/UF1/UF2 plasmid, which contained pBS(+) (Stratagene, Inc.) with a cytomegalovirus (CMV) promoter driving a humanized GFP gene adapted for expression in mammalian cells. After transfection, high-level GFP expressing cells were initially selected by FACS analysis and sorting using a MoFlo cytometer (Cytomation, Inc.).
Decitabine, a potent inhibitor of mammalian DNMT 1, was used as a positive control. […] Cells were then seeded to 30% confluence (˜5000 cell/well) in a 96-well plate containing the test compounds, and grown for three days in at 37° C. in 5% CO2.
The plates were examined under a fluorescent microscope using a 450-490 excitation filter (13 filter cube, Leica, Deerfield Ill.). Wells were scored g1 positive, g2 positive, or g3 if GFP was expressed in 10%, 30%, >75% of viable cells, respectively.
Table 1 provides the results of the test for decitabine and the test compounds as DNA methylation inhibitors. GFP50 is the concentration of an inhibitor at which the Green Fluorescent Protein (GFP) expression level is reduced from g3 to g1/2.

[5] = concentration at which GFP expression level is reduced from g3 to g1/2, CMV-EE210 cells

SMILES: Nc1ncn([C@H]2CC(OP(=O)(O)OC[C@H]3O[C@@H](n4cnc5c(=O)[nH]c(N)nc54)CC3O)[C@@H](CO)O2)c(=O)n1 (stereo in doubt) [Compound I-1]
- Change in LINE-1 DNA methylation [1]: Decreases in LINE-1 DNA methylation
- solubility [2]: 130 to 150 mg/mL (≈ 233 to 269 mM)
- Stability in anhydrous DMSO ([3]; anhydrous DMSO): stable
- Improvement in stability ([3]; combined effects of cooling plus addition of ethanol to the propylene glycol/glycerin system): 66 fold
- Improvement in stability ([3]; propylene glycol/glycerin/ethanol (65:25:10), changing from warmer to colder storage conditions): 40 fold
- % decomposition per hour ([3]; DMSO/water (1:1, w/w), 25° C./60% relative humidity): 0.72
- Percent compound detected ([3]; DMSO/water (1:1, w/w), 25° C./60% relative humidity, 5 hours): 90.1%
- Percent compound detected ([3]; DMSO/water (1:1, w/w), 25° C./60% relative humidity, time point 0): 93.7%
- % decomposition per hour ([3]; DMSO/water (3:1, w/w), 25° C./60% relative humidity): 0.10
- Percent compound detected ([3]; DMSO/water (3:1, w/w), 25° C./60% relative humidity, 24 hours): 94.2%
- Percent compound detected ([3]; DMSO/water (3:1, w/w), 25° C./60% relative humidity, time point 0): 96.6%
- % decomposition per hour ([3]; propylene glycol/glycerin (70:30, v/v), room temperature): 0.021
- Percent compound detected ([3]; propylene glycol/glycerin (70:30, v/v), room temperature, 24 hours): 96.3%
- Percent compound detected ([3]; propylene glycol/glycerin (70:30, v/v), room temperature, time point 0): 96.8%
- % decomposition per hour ([3]; propylene glycol/glycerin/ethanol (65:25:10, w/w/w), 2-8° C.): 0.00032
- Percent compound detected ([3]; propylene glycol/glycerin/ethanol (65:25:10, w/w/w), 2-8° C., 3 months): 95.1%
- Percent compound detected ([3]; propylene glycol/glycerin/ethanol (65:25:10, w/w/w), 2-8° C., time point 0): 95.8%
- % decomposition per hour ([3]; propylene glycol/glycerin/ethanol (65:25:10, w/w/w), 25° C./60% relative humidity): 0.013
- Percent compound detected ([3]; propylene glycol/glycerin/ethanol (65:25:10, w/w/w), 25° C./60% relative humidity, 3 months): 67.6%
- Percent compound detected ([3]; propylene glycol/glycerin/ethanol (65:25:10, w/w/w), 25° C./60% relative humidity, time point 0): 95.8%
- % decomposition per hour ([3]; water, pH 7.0, 2-8° C.): 0.14
- Percent compound detected ([3]; water, pH 7.0, 2-8° C., 5 hours): 95.1%
- Percent compound detected ([3]; water, pH 7.0, 2-8° C., time point 0): 95.8%
- % decomposition per hour ([3]; water, pH 7.0, room temperature): 1.1
- Percent compound detected ([3]; water, pH 7.0, room temperature, 5 hours): 90.4%
- Percent compound detected ([3]; water, pH 7.0, room temperature, time point 0): 95.8%
- GFP Expression Level ([4]; CMV-EE210 cells): g3 (>75% of viable cells)
- EC50 [4, 5]: 400 nM

SMILES: Nc1ncn([C@H]2CC(O)[C@@H](COP(=O)(O)OC3C[C@H](n4cnc5c(=O)[nH]c(N)nc54)O[C@@H]3CO)O2)c(=O)n1 (some centres unmarked) [Compound I-2]
- GFP Expression Level ([4]; CMV-EE210 cells): g3 (>75% of viable cells)
- EC50 [4, 5]: 700 nM

SMILES: Nc1ncn([C@H]2C[C@H](O)[C@@H](CO)O2)c(=O)n1 [Decitabine, 5-aza-2′-deoxycytidine, reference compound]
- GFP Expression Level ([4]; CMV-EE210 cells): g3 (>75% of viable cells)
- EC50 [4]: 500 nM
